The text below walks through data of article PMC5750657, “In Vitro Phase I Metabolism of CRV431, a Novel Oral Drug Candidate for Chronic Hepatitis B” (Pharmaceutics, 2017).

One may read the inhibition as the share of the control response that was lost under treatment.

Type in all cases: in vitro ADME
The nature of series [1]: CRV431 metabolite profile in monkey liver microsomes (ESI-LCMS). Here is the method: (§1) Human and rat liver microsomes were obtained from Xenotech (Kansas City, MO, USA) and stored at −80 °C. Monkey liver microsomes were obtained from Thermo Fisher Scientific (Waltham, MA, USA) and stored at −80 °C. Preliminary microsomal biotransformation experiments were run with 0.1, 1, and 10 μg/mL CRV431. CRV431 biotransformation was minimal at 0.1 μg/mL, while both 1 and 10 μg/mL CRV431 gave sufficient metabolite quantity and identical metabolite profiles. Additionally, preliminary experiments were conducted with human liver microsome (HLM) levels ranging for 0.125 to 1 mg. Subsequent microsomal biotransformation experiments were conducted using 0.5 mg of microsome per assay.
(§2) Thawed microsome 20 mg/mL stocks were diluted 32× into cold buffer (Phosphate pH 7.4 + MgCl2 3 mM + EDTA 1 mM) to 0.625 mg/mL, and stored on ice. For experiments with CRV431, 2 μL of […] stocks were added to cold 1-mL microsomes (500× dilution) to generate the 1 μg/mL samples. […]. Samples were mixed by vortexing, and 160 μL was transferred into tubes containing 40 μL buffer on ice. Metabolic activity was stopped by the addition of ice-cold methanol (200 μL), followed by vortexing for an additional 10 s; these were zero-time samples. The extraction was completed by waiting 5 min, vortexing samples again for 5 s, then spinning the samples for 10 min at 3300 rpm at 4 °C in a pre-cooled microcentrifuge. The supernatant (325 μL) was transferred to new tubes and stored at −80 °C.
(§3) For time course experiments, metabolism was initiated by adding 40 μL of NADPH Regenerating System (5 mg/mL NADP, 6.5 mg/mL G6P and 5 units/mL of G6P dehydrogenase). The sample was vortexed for 2 s and placed in a 37 °C bath. For CRV431 experiments at time points 10 min, 20 min, 40 min, and 80 min, 200 μL of ice-cold methanol was added to the 200 μL microsome reactions, and extracted as described above. Samples were stored at −80 °C. For verapamil experiments at 15 min, 200 μL of ice-cold methanol was added to the 200 μL microsome reactions and extracted as described above. Samples were stored at −80 °C.
(§4) Microsome extracts were removed from the freezer (−80 °C) and left to thaw at room temperature. Aliquots (50 μL) were removed and placed in 2 mL plastic Eppendorf microcentrifuge tubes, to which 200 μL of a 0.2 M ZnSO4 solution (0.2 M ZnSO4 in water, plus HPLC grade methanol, 1:4, v/v) was added as protein precipitating reagent. The tubes were capped and vortexed for 10 s, and then left on the benchtop for 10 min. Samples were then centrifuged at 3300 rpm for 10 min. The clear supernatant (≈150 μL) was transferred to an appropriately labeled LC-MS autosampler vial and capped.
(§5) Samples were analyzed by electrospray ionization liquid chromatography mass spectrometry (ESI-LCMS) on an Agilent HP 1100 LC-MS. Samples were placed in an autosampler maintained at 5 °C. CRV431 microsomal extracts (20 μL) were injected onto a Zorbax SB-C18 reverse phase HPLC column (1.8 μm Rapid Resolution HT Cartridge, 4.6 × 30 mm (Agilent, Santa Clara, CA, USA) maintained at 75 °C, and the components were separated using an acetonitrile–water gradient system (Table 2). The sodium adducts of CRV431 (1326 m/z) and metabolites were analyzed by mass spectrometry (MS) using electrospray ionization (ESI) in positive ion mode. The ESI–MS was optimized with N2 gas temperature set at 350 °C and drying gas at […]. The fragmentor and capillary voltages were set at 260 and 4000 volts, respectively. The nebulizer pressure was set at 40 psig. For the initial analysis of the microsomal extracts, the ESI–MS was run in scan mode (1260–1460 m/z) to capture all ion signals present. Subsequently, the microsomal extracts were run in selected ion mode (SIM), with the ions identified in the scans.

Series [2] in a line: Metabolic stability of CRV431 in human liver microsomes. Here is the method:
Incubations of CRV431 (1 and 10 μM) with pooled human liver microsomes (1 mg protein/mL) were conducted for 30 min. […] CRV431 was added to incubations in DMSO (0.1% v/v). Additional incubations of CRV431 (1 and 10 μM) with human liver microsomes (1 mg protein/mL) were carried out at 0, 15, 30, 60, and 120 min. Reactions were initiated by the addition of the NADPH-generating system, and were stopped by the addition of 175 μL of acetonitrile. The samples were centrifuged (920× g for 10 min at 10 °C), and the supernatant fractions were analyzed by LC-MS/MS (Sciex, Redwood City, CA, USA) to quantify the amount of unchanged CRV431 based on a calibration curve (ranging from 0.01 to 15 μM). Zero-time, zero-cofactor (no NADPH), zero-substrate, and zero-protein served as blanks.
(§6) The electrospray voltage was set at 4500 volts.
A general note: Microsomes from liver hold many membrane-bound enzymes, among them those of drug oxidation.

A further series concerns the target T1, recombinant human CYP2D6 (Homo sapiens, UniProt P10635).
T1 construct: purchased Sekisui Xenotech, Kansas City, MO, USA
Nature of the series: Metabolism by recombinant human CYP enzymes: CYP2D6. The following applies: CRV431 1 μM; 50 pmol CYP/mL; 15 min. As for the experimental part:
(§7) This experiment was carried out to determine the cytochrome P450 (CYP) enzymes capable of metabolizing CRV431. […] Reactions were initiated by the addition of cofactor, and were terminated at zero and 15 min by the addition of 175 μL ice-cold methanol.
as §6

Series [3] relates to other recombinant human CYP enzymes. Nature of the series: Metabolism by the other recombinant human CYP enzymes evaluated. The following applies: CRV431 1 and 10 μM; the CYP enzymes of the panel not given; 15 min. As for the experimental part:
as §7, §6

A short description of series [4]: CRV431 metabolite profile in rat liver microsomes (ESI-LCMS). The following applies: Sprague-Dawley, pH 7.4. Here is the method:
as §1, §2, §3, §4, §5

The target in another series is T2, recombinant human CYP3A4 (Homo sapiens, UniProt P08684).
T2 construct: purchased Sekisui Xenotech, Kansas City, MO, USA
T2 sequence (P08684 whole entry): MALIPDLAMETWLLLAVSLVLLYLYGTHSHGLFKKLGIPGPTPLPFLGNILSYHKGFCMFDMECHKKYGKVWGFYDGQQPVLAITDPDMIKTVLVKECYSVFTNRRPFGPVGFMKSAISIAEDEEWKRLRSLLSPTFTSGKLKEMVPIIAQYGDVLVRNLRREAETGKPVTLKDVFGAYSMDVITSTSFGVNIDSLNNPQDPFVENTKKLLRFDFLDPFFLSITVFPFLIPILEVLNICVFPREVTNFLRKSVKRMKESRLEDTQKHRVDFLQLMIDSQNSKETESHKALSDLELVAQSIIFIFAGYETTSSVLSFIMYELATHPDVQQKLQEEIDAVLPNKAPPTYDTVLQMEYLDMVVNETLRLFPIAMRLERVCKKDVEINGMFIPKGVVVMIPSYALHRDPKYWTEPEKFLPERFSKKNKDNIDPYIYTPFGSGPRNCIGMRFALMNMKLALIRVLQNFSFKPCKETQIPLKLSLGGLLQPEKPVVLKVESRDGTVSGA
Nature of the series: Metabolism by recombinant human CYP enzymes: CYP3A4. As to conditions: 50 pmol CYP/mL, 15 min. As for the experimental part: as §7, §6

In series [5] the target is T3, recombinant human CYP2C19 (Homo sapiens, UniProt P33261).
T3 construct: purchased Sekisui Xenotech, Kansas City, MO, USA
T3 sequence (P33261 whole entry): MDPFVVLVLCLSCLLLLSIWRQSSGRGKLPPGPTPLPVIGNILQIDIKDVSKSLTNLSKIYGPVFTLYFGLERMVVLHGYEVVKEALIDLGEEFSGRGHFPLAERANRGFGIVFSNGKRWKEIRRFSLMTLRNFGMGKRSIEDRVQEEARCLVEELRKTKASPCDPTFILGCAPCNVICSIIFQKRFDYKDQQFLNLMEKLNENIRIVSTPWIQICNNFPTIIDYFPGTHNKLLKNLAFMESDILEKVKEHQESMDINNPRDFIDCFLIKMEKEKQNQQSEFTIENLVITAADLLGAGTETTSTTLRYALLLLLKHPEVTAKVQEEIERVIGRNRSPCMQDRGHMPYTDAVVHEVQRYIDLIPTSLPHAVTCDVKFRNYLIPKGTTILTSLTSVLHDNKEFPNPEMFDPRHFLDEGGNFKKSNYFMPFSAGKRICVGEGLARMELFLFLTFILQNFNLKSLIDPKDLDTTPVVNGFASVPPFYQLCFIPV
Nature of the series: Metabolism by recombinant human CYP enzymes: CYP2C19. As to conditions: CRV431 1 μM; 50 pmol CYP/mL; 15 min. As for the experimental part: as §7, §6

Series [6] in a line: CRV431 metabolite profile in human liver microsomes (ESI-LCMS). As to conditions: pH 7.4; for Amount of CRV431 remaining: microsomes, 1 μg/mL. Here is the method:
as §1, §2, §3, §4, §5

A further series has as its target T4, recombinant human CYP1A2 (Homo sapiens, UniProt P05177).
T4 construct: purchased Sekisui Xenotech, Kansas City, MO, USA
T4 sequence (P05177 1-516): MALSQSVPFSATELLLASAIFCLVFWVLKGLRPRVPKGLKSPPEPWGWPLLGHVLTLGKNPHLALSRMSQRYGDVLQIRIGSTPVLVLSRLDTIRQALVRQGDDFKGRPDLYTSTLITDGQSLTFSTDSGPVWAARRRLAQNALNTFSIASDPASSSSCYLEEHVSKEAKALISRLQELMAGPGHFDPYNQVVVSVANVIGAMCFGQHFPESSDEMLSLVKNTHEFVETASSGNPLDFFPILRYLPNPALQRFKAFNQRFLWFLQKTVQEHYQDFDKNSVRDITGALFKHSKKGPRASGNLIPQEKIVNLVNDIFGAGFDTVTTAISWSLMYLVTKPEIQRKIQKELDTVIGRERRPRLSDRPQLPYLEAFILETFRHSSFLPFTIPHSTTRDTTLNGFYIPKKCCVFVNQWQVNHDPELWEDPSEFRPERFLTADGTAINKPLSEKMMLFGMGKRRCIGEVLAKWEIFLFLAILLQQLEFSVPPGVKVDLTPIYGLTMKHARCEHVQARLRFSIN
Nature of the series: Metabolism by recombinant human CYP enzymes: CYP1A2. As to conditions: CRV431 1 μM; 50 pmol CYP/mL; 15 min. As for the experimental part:
as §7, §6

Series [7] deals with T5, CYP2C9 (Homo sapiens, UniProt P11712). The experiment in a line: Metabolism by recombinant human CYP enzymes: CYP2C9. The arrangement: purchased Sekisui Xenotech, Kansas City, MO, USA. As to conditions: 50 pmol CYP/mL, 15 min. As for the experimental part: as §7, §6
T5 sequence (P11712 whole entry): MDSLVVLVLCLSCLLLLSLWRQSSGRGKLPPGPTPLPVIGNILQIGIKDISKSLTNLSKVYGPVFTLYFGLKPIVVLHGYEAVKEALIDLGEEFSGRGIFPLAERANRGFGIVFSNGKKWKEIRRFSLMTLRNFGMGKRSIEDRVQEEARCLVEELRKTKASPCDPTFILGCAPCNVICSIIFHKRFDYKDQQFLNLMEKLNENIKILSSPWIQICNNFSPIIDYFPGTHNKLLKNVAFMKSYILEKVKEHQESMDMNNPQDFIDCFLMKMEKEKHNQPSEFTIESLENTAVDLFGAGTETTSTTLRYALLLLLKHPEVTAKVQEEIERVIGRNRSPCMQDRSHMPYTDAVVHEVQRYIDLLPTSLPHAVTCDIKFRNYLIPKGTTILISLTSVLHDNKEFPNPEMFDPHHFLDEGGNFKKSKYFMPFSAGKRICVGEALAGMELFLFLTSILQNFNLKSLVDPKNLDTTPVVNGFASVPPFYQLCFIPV
Series [8] can be described thus: Recombinant CYP panel: incubation with control bactosomes. The following applies: CRV431 1 μM, 15 min. Here is the method:
as §7, §6

Another series deals with CYP2C19. The experiment in a line: Chemical inhibition of CRV431 loss in human liver microsomes: CYP2C19. The following applies: pH 7.4, probe CRV431 (1 μM; loss of parent), metabolism-dependent inhibitor (also inhibits CYP3A4/5), 30 min pre-incubation. Here is the method: (§8) This experiment was carried out manually to verify the role of individual CYP enzymes in the metabolism of CRV431. […] Incubations were conducted at 37 ± 1 °C in 0.2 mL incubation mixtures (final volume) containing potassium phosphate buffer (50 mM, pH 7.4), MgCl2 (3 mM) and EDTA (1 mM, pH 7.4), with an NADPH-generating system as cofactor. The NADPH-generating system consisted of NADP (1 mM, pH 7.4), glucose-6-phosphate (5 mM, pH 7.4), and glucose-6-phosphate dehydrogenase (1 Unit/mL). CRV431 was added to the incubation mixtures in DMSO (0.1% v/v). For incubations with direct-acting chemical inhibitors, reactions were initiated by the addition of cofactor, and stopped by the addition of an equal volume of acetonitrile stop reagent. For incubations with metabolism-dependent chemical inhibitors, 30 min pre-incubations of human liver microsomes and the inhibitor were initiated by the addition of the cofactor. CRV431 was then added to the mixture to be incubated for 15 min. Reactions were stopped by the addition of an equal volume of acetonitrile stop reagent. Samples were analyzed by LC-MS/MS to quantify the amount of unchanged CRV431. Control samples with no CYP inhibitor present were conducted in the presence of the solvent used to dissolve the CYP inhibitor (“solvent control”).
(§9) Samples were analyzed by LC-MS/MS on a SCIEX 4000 QTrap mass spectrometer (Sciex, Rewood City, CA, USA). […]

In series [9] the target is T5, CYP2C9. Nature of the series: Chemical inhibition of CRV431 loss in human liver microsomes: CYP2C9. The following applies: pH 7.4, probe CRV431 (1 μM; loss of parent), metabolism-dependent inhibitor, 30 min pre-incubation. The arrangement: tissue Sekisui Xenotech, Kansas City, MO, USA; host or cells: human liver microsomes. Here is the method:
as §8, §9

Each structure is given as a SMILES string.

T1 sequence (P10635 whole entry): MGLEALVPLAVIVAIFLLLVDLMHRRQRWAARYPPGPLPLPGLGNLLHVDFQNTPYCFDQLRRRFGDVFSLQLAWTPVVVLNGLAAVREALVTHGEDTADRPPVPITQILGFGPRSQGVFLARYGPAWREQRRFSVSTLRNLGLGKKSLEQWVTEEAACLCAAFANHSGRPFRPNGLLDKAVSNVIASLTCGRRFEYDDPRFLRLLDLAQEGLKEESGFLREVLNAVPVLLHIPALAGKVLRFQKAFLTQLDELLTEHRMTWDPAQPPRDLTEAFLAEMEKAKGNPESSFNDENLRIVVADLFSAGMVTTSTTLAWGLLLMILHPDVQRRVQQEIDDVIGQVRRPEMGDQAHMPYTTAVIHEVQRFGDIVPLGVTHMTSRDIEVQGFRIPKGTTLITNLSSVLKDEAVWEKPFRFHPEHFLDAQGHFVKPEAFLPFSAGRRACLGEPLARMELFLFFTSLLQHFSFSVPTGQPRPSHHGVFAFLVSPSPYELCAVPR

For `CCC1NC(=O)C([C@H](O)[C@H](C)CCCCCCNC(C)=O)N(C)C(=O)C(C(C)C)N(C)C(=O)[C@H](CC(C)C)N(C)C(=O)[C@H](CC(C)C)N(C)C(=O)C(C)NC(=O)[C@H](C)NC(=O)C(CC(C)C)N(C)C(=O)[C@H](C(C)C)NC(=O)[C@H](CC(C)C)N(C)C(=O)C(C)N(C)C1=O` (stereo in doubt) [CRV431], the “Rate of CRV431 metabolism in monkey liver microsomes, greater than in human microsomes” value in [1] (monkey relative to human liver microsomes) is “at least five-fold”. Further, the “% of Total Drug-Related Mass Versus Time (minutes) 0 min” value in series [1] (monkey, 0 min, 1 ug/mL, pH 7.4) came out at 96.3%; in series [4] (0 min, 1 ug/mL), 96.2%; in series [6] (0 min, 1 ug/mL), 96.4%. Besides, the “% of Total Drug-Related Mass Versus Time (minutes) 2.5 min” value in series [1] (monkey, 2.5 min, 1 ug/mL, pH 7.4) turned out to be 59.4%. In addition, the “% of Total Drug-Related Mass Versus Time (minutes) 5 min” value in series [1] (monkey, 5 min, 1 ug/mL, pH 7.4) was found to be 21.5%. The “% of Total Drug-Related Mass Versus Time (minutes) 10 min” value in series [1] (monkey, 10 min, 1 ug/mL, pH 7.4) is recorded as 12.3%; in series [4] (10 min, 1 ug/mL), 95.4%; in [6] (10 min, 1 ug/mL), 57.0%. The “% of Total Drug-Related Mass Versus Time (minutes) 20 min” value in [1] (monkey, 20 min, 1 ug/mL, pH 7.4) is 4.3%; in series [4] (20 min, 1 ug/mL) it was 94.6%; in [6] (20 min, 1 ug/mL), 27.5%. The “% of Total Drug-Related Mass Versus Time (minutes) 40 min” value in series [1] (monkey, 40 min, 1 ug/mL, pH 7.4) is 6.6%; in series [4] (40 min, 1 ug/mL) it was 93.6%; in [6] (40 min, 1 ug/mL), 10.4%. Also, the “% of Total Drug-Related Mass Versus Time (minutes) 80 min” value in series [1] (monkey, 80 min, 1 ug/mL, pH 7.4) came to 6.7%; in series [4] (80 min, 1 ug/mL), 92.3%; in [6] (80 min, 1 ug/mL), 4.0%. Further, the “Amount of CRV431 remaining” value in [1] (monkey, microsomes, 10 min, 1 μg/mL, pH 7.4) stood at 13.2%; in series [4] (microsomes, 80 min, 1 μg/mL), 92.3%; in series [6] (10 min), 71.8%; in series [6] (80 min) it was 5.3%. Besides, the “Biotransformation of CRV431” value in [2] (1 and 10 μM, 1 mg protein/mL, after 60 min incubation, with NADPH-generating system) is “nearly complete”; in series [2] (absence of microsomal proteins and the NADPH-generating system, same time period) it was “no biotransformation”. For the same molecule, the “Disappearance of CRV431” value at recombinant human CYP2D6 came to 32%; on recombinant human CYP3A4 (CRV431 1 μM) it was 64%; in series [5] it was 17%; on recombinant human CYP1A2, 19%; at CYP2C9 [7] (CRV431 1 μM) it was 27%. The Substrate loss result in [3] is given as “less than 15%”. The “Loss of CRV431” value was found to be 41% at recombinant human CYP3A4 (CRV431 10 μM), 27% on CYP2C9 [7] (CRV431 10 μM) and 24% in [8].

With `COc1ccc2nc([S@@+]([O-])Cc3ncc(C)c(OC)c3C)[nH]c2c1` [esomeprazole], the inhibition at 15 min in the series with CYP2C19 stood at 37%.

On to `O=C(O)COc1ccc(C(=O)c2cccs2)c(Cl)c1Cl` [tienilic acid], for which, at CYP2C9 [9], the inhibition at 15 min is 7%.
